Measurements: BindingDB's records for doi:10.1021/jm060234e (Scientific Computing, 2006)

Biological target: T1, Progesterone receptor (Homo sapiens, UniProt P06401)
T1 sequence (P06401 whole entry): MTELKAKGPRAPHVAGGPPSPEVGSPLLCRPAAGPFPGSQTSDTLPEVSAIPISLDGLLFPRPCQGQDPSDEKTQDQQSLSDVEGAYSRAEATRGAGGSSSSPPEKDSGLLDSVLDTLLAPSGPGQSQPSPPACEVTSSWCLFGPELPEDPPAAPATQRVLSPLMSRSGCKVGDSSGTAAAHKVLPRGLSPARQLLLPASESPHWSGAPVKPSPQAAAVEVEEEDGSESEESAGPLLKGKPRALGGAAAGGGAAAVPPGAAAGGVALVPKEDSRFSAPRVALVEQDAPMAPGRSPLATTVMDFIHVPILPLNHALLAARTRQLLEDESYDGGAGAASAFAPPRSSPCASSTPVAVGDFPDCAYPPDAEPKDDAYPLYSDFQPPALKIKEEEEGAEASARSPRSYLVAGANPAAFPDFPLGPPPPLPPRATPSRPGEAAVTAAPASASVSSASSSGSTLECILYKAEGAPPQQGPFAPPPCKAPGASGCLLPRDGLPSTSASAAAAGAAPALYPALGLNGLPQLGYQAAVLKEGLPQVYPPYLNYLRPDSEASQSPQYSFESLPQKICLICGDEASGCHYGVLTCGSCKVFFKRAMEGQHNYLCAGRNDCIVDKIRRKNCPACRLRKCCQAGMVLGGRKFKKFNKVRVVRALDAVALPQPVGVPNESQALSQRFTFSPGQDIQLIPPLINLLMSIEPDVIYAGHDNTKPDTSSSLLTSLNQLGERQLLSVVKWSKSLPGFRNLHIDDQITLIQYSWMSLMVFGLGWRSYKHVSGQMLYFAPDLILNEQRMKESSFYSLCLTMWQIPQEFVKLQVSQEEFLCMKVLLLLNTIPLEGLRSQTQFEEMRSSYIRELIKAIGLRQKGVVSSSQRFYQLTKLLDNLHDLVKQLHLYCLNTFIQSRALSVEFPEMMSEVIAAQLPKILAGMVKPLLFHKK
Assay: Displacement of [3H]progesterone from Progesterone receptor

| SMILES | Ki |
| --- | --- |
| CC1=CC(C)(C)Nc2ccc3c(c21)COc1c(F)cc(F)cc1-3 [7,9-difluoro-2,2,4-trimethyl-2,5-dihydro-1H-chromeno[3,4-f]quinoline] | 13 nM |
| CC1=CC(C)(C)Nc2ccc3c(c21)Cc1c(F)cccc1-3 [10-Fluoro-1,3,3-trimethyl-4,11-dihydro-3H-indeno[2,1-f]quinoline] | 15 nM |
